Test results published in PubChem BioAssay (NCI).
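The compound was tested at five concentrations on cells cultured in 96-well plates, with a 48-hour exposure period. GI50 marks 50% less growth. The concentration for full growth arrest is given as TGI.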

Tests used:
Experiment in all cases: inhibition of tumour cell growth, NCI panel, 48 h
U251 CNS = tested on: U251 CNS
K-562 leukemia = tested on: K-562 leukemia
786-0 renal = tested on: 786-0 renal
NCI/ADR-RES ovarian = tested on: NCI/ADR-RES ovarian
UACC-257 melanoma = tested on: UACC-257 melanoma
MCF7 breast = tested on: MCF7 breast
HOP-62 NSCLC = tested on: HOP-62 NSCLC
NCI-H226 lung = tested on: NCI-H226 lung
HCT-15 colon = tested on: HCT-15 colon
SF-539 CNS = tested on: SF-539 CNS
HT29 colon = tested on: HT29 colon
MDA-MB-231 breast = tested on: MDA-MB-231 breast
SNB-19 CNS = tested on: SNB-19 CNS
SNB-75 CNS = tested on: SNB-75 CNS
SW-620 colon = tested on: SW-620 colon
NCI-H23 lung = tested on: NCI-H23 lung
OVCAR-8 ovarian = tested on: OVCAR-8 ovarian
SF-268 CNS = tested on: SF-268 CNS
KM12 colon = tested on: KM12 colon
HCT-116 colon = tested on: HCT-116 colon
HS 578T breast = tested on: HS 578T breast
A549 NSCLC = tested on: A549 NSCLC
SN12C renal = tested on: SN12C renal
NCI-H522 lung = tested on: NCI-H522 lung
CAKI-1 renal = tested on: CAKI-1 renal
OVCAR-3 ovarian = tested on: OVCAR-3 ovarian
MDA-MB-435 = tested on: MDA-MB-435
UACC-62 melanoma = tested on: UACC-62 melanoma
HL-60(TB) leukemia = tested on: HL-60(TB) leukemia
SK-OV-3 ovarian = tested on: SK-OV-3 ovarian
SF-295 CNS = tested on: SF-295 CNS
TK-10 renal = tested on: TK-10 renal
SK-MEL-28 melanoma = tested on: SK-MEL-28 melanoma
HOP-92 NSCLC = tested on: HOP-92 NSCLC
ACHN renal = tested on: ACHN renal
OVCAR-4 ovarian = tested on: OVCAR-4 ovarian
MOLT-4 leukemia = tested on: MOLT-4 leukemia
BT-549 breast = tested on: BT-549 breast
M14 melanoma = tested on: M14 melanoma
RPMI-8226 leukemia = tested on: RPMI-8226 leukemia
NCI-H460 lung = tested on: NCI-H460 lung
UO-31 renal = tested on: UO-31 renal
SR leukemia = tested on: SR leukemia
PC-3 prostate = tested on: PC-3 prostate
T-47D breast = tested on: T-47D breast
COLO 205 colon = tested on: COLO 205 colon
SK-MEL-2 melanoma = tested on: SK-MEL-2 melanoma
A498 renal = tested on: A498 renal
RXF 393 renal = tested on: RXF 393 renal
EKVX NSCLC = tested on: EKVX NSCLC
CCRF-CEM leukemia = tested on: CCRF-CEM leukemia
OVCAR-5 ovarian = tested on: OVCAR-5 ovarian
LOX IMVI melanoma = tested on: LOX IMVI melanoma
DU-145 prostate = tested on: DU-145 prostate

In the case of CCC1(N2C(=O)c3c(F)c(F)c(F)c(F)c3C2=O)C(=O)NC(=O)N(c2ccccc2)C1=O (stereo not drawn), the GI50 (U251 CNS) is reported as 1.53 µM, the TGI (U251 CNS) is reported as 3.07 µM and the GI50 (K-562 leukemia) is reported as 2.31 µM. It also gave a TGI (K-562 leukemia) of 5.23 µM, a GI50 (786-0 renal) of 3.34 µM and a TGI (786-0 renal) of 13.9 µM. For the same compound, the GI50 (NCI/ADR-RES ovarian) was 7.69 µM, the TGI (NCI/ADR-RES ovarian) was 27.1 µM and the GI50 (UACC-257 melanoma) was 5.06 µM. For the same compound, the TGI (UACC-257 melanoma) was 17.1 µM, the GI50 (MCF7 breast) was 2.21 µM and the TGI (MCF7 breast) was 17 µM. The GI50 (HOP-62 NSCLC) was 4.93 µM, the TGI (HOP-62 NSCLC) was 20.8 µM and the GI50 (NCI-H226 lung) was 10.9 µM. For the same compound, the TGI (NCI-H226 lung) was 24.2 µM, the GI50 (HCT-15 colon) was 2.32 µM and the TGI (HCT-15 colon) was 7.14 µM. It also gave a GI50 (SF-539 CNS) of 2.24 µM, a TGI (SF-539 CNS) of 4.33 µM and a GI50 (HT29 colon) of 2.23 µM. It also gave a TGI (HT29 colon) of 4.89 µM, a GI50 (MDA-MB-231 breast) of 1.7 µM and a TGI (MDA-MB-231 breast) of 4.03 µM. The GI50 (SNB-19 CNS) was 3.93 µM, the TGI (SNB-19 CNS) was 16.9 µM and the GI50 (SNB-75 CNS) was 1.9 µM. For the same compound, the TGI (SNB-75 CNS) was 5.09 µM, the GI50 (SW-620 colon) was 1.76 µM and the TGI (SW-620 colon) was 3.96 µM. It also gave a GI50 (NCI-H23 lung) of 1.99 µM, a TGI (NCI-H23 lung) of 4.02 µM and a GI50 (OVCAR-8 ovarian) of 3.47 µM. For the same compound, the TGI (OVCAR-8 ovarian) was 11.4 µM, the GI50 (SF-268 CNS) was 3.66 µM and the TGI (SF-268 CNS) was 16 µM. For the same compound, the GI50 (KM12 colon) was 2.58 µM, the TGI (KM12 colon) was 8.31 µM and the GI50 (HCT-116 colon) was 4.1 µM. For the same compound, the TGI (HCT-116 colon) was 18.2 µM, the GI50 (HS 578T breast) was 4.14 µM and the TGI (HS 578T breast) was 30.1 µM. The GI50 (A549 NSCLC) was 14 µM, the TGI (A549 NSCLC) was 28.6 µM and the GI50 (SN12C renal) was 1.57 µM. It also gave a TGI (SN12C renal) of 3.54 µM, a GI50 (NCI-H522 lung) of 3.13 µM and a TGI (NCI-H522 lung) of 26.2 µM. For the same compound, the GI50 (CAKI-1 renal) was 1.95 µM, the TGI (CAKI-1 renal) was 4 µM and the GI50 (OVCAR-3 ovarian) was 1.67 µM. The TGI (OVCAR-3 ovarian) was 4.1 µM, the GI50 (MDA-MB-435) was 2.89 µM and the TGI (MDA-MB-435) was 8.02 µM. For the same compound, the GI50 (UACC-62 melanoma) was 1.41 µM, the TGI (UACC-62 melanoma) was 3.1 µM and the GI50 (HL-60(TB) leukemia) was 2.67 µM. It also gave a TGI (HL-60(TB) leukemia) of 4.57 µM, a GI50 (SK-OV-3 ovarian) of 10.6 µM and a TGI (SK-OV-3 ovarian) of 31 µM. It also gave a GI50 (SF-295 CNS) of 2.57 µM, a TGI (SF-295 CNS) of 7.55 µM and a GI50 (TK-10 renal) of 2.4 µM. For the same compound, the TGI (TK-10 renal) was 5.57 µM, the GI50 (SK-MEL-28 melanoma) was 2.79 µM and the TGI (SK-MEL-28 melanoma) was 10.6 µM. The GI50 (HOP-92 NSCLC) was 2.01 µM, the TGI (HOP-92 NSCLC) was 4.17 µM and the GI50 (ACHN renal) was 4.02 µM. For the same compound, the TGI (ACHN renal) was 14.9 µM, the GI50 (OVCAR-4 ovarian) was 1.74 µM and the TGI (OVCAR-4 ovarian) was 4.08 µM. For the same compound, the GI50 (MOLT-4 leukemia) was 2.64 µM, the TGI (MOLT-4 leukemia) was 6.35 µM and the GI50 (BT-549 breast) was 2.1 µM. It also gave a TGI (BT-549 breast) of 4.76 µM, a GI50 (M14 melanoma) of 4.46 µM and a TGI (M14 melanoma) of 19.4 µM. It also gave a GI50 (RPMI-8226 leukemia) of 0.331 µM, a TGI (RPMI-8226 leukemia) of 2.58 µM and a GI50 (NCI-H460 lung) of 3.22 µM. For the same compound, the TGI (NCI-H460 lung) was 11.5 µM, the GI50 (UO-31 renal) was 17.1 µM and the TGI (UO-31 renal) was 63.7 µM. It also gave a GI50 (SR leukemia) of 0.496 µM, a TGI (SR leukemia) of 4.32 µM and a GI50 (PC-3 prostate) of 2.28 µM. It also gave a TGI (PC-3 prostate) of 16 µM, a GI50 (T-47D breast) of 2.2 µM and a TGI (T-47D breast) of 4.72 µM. For the same compound, the GI50 (COLO 205 colon) was 2.57 µM, the TGI (COLO 205 colon) was 6.78 µM and the GI50 (SK-MEL-2 melanoma) was 3.84 µM. The TGI (SK-MEL-2 melanoma) was over 100 µM, the GI50 (A498 renal) was 12.2 µM and the TGI (A498 renal) was 25.9 µM. For the same compound, the GI50 (RXF 393 renal) was 2.75 µM, the TGI (RXF 393 renal) was 15.5 µM and the GI50 (EKVX NSCLC) was 2.77 µM. It also gave a TGI (EKVX NSCLC) of 8.01 µM, a GI50 (CCRF-CEM leukemia) of 1.31 µM and a TGI (CCRF-CEM leukemia) of 3.8 µM. The GI50 (OVCAR-5 ovarian) was 1.69 µM, the TGI (OVCAR-5 ovarian) was 3.43 µM and the GI50 (LOX IMVI melanoma) was 1.18 µM. The TGI (LOX IMVI melanoma) was 2.73 µM, the GI50 (DU-145 prostate) was 4.87 µM and the TGI (DU-145 prostate) was 17.9 µM.
